Patent US9440913B2, “Dihydroxybenzene derivatives and antiprotozoal agent comprising same as active ingredient” (NAI INC., priority 2010, dated 2016)

Tests used:
T. b. rhodesiense = experiment: Treatment of mice infected with T. b. rhodesiense (cure and survival); type: in vivo; conditions: for Cured/Infected: i.p., five doses at 6 hour interval
Method: Mice were infected with T. b. rhodesiense, a protozoan that causes acute symptoms at 1×10^3 cells/mouse, administration of medication in mice was started 24 hours after the infection, and the mice received five doses of each drug at the dosing interval of 6 hours. Mice were all infected and treated intraperitoneally (i.p). Mice that have no Trypanosomatid protozoan in the blood and survive even 60 days or more after the end of treatment were determined to be cured. Survival days represents an average survival time after treatment in mice that died from infection; therefore, survival days for the group of cured mice are not described in Table 2.

[1] = system: glycerol-3-phosphate-dependent respiration; conditions: mitochondrial specimen of T. brucei brucei multiplied in the rat bloodstream; cited from earlier work
[2] = target: T1, recombinant Trypanosome AOX (TAO) enzyme (Trypanosoma brucei brucei, UniProt Q26710); experiment: TAO enzyme inhibition (quinol oxidase activity, ubiquinol-1 substrate); type: biochemical, T. brucei brucei; conditions: TAO-expressing E. coli membrane fraction, 25° C., ubiquinol-1, absorbance at 278 nm
T1 construct: made in house; host or cells: Escherichia coli (membrane fraction)
Method in brief: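 E. coli membranes expressing T. brucei brucei TAO (0.35 ng) pre-incubated with inhibitor in 50 mM Tris-HCl pH 7.5, 4 min at 25 °C. Reaction started with ubiquinol-1; quinol oxidation followed as absorbance change at 278 nm.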

T. b. rhodesiense IL1501 = experiment: Antiprotozoal effect, MIC measurement in HMI-9 culture; type: cell-based; conditions: Trypanosoma brucei, RHODESIENSE, 24 h, bloodstream forms, 18 + 6 hours culture
Method in brief: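 Bloodstream-form T. b. rhodesiense IL1501 were grown in HMI-9 medium at 37° C. with 5% CO2. Three-fold serial drug dilutions from DMSO stocks were made in 96-well plates in HMI-9, with or without glycerol (final 5 mM), and 5×10^4 cells/well added. After 18 hours plus 6 more hours of culture, wells were checked by microscope; MIC was the lowest concentration showing no motile survivors.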

[3] = target: Cryptosporidium cyanide insensitive oxidase (AOX), recombinant protein (cCpAOX) (Cryptosporidium parvum, UniProt Q761U6); experiment: CpAOX enzyme inhibition; type: biochemical
From the text: Cryptosporidium has found to have cyanide insensitive oxidase (AOX), and its inhibitory activity was observed using its recombinant protein (cCpAOX) produced in E. coli.

[4] = Glycerol (+), final concentration of glycerol of 5 mM

T1 sequence (Q26710 whole entry): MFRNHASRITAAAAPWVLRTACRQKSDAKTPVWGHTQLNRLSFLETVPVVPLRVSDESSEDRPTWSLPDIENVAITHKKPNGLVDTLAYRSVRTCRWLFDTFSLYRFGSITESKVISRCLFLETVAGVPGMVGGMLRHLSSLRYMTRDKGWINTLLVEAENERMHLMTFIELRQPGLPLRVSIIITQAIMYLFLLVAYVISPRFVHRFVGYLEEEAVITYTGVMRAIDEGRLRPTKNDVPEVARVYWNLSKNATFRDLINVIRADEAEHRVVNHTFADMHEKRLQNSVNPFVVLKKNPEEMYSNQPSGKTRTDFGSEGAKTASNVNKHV
Sequence of Cryptosporidium cyanide insensitive oxidase (AOX), recombinant protein (cCpAOX) (Q761U6 entry or part of it): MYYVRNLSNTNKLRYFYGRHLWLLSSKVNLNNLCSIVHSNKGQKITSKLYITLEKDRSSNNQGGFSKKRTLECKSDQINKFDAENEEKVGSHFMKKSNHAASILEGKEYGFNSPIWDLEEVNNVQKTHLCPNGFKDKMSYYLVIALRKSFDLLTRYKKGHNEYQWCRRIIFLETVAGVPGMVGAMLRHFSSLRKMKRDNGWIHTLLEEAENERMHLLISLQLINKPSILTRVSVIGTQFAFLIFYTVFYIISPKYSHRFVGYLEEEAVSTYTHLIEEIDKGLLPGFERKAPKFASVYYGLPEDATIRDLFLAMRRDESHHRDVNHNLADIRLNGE

| SMILES | Cured/Infected (T. b. rhodesiense; Glycerol dose 1.25 g/kg) | absolute amounts of 50% inhibition [1] | IC50 [2] [nM] | MIC (T. b. rhodesiense IL1501; [4]) [nM] | MIC (T. b. rhodesiense IL1501; Glycerol (−)) [nM] | also measured |
| --- | --- | --- | --- | --- | --- | --- |
| C/C(=C\Cc1c(O)c(Cl)c(C)c(C=O)c1O)CC/C=C(\C)[C@@H]1CC(=O)C(C)(C)O1 (racemic) [Ascofuranone, dl-5-Chloro-2,4-dihydroxy-6-methyl-3-[(2E,6E)-3-methyl-7-(3,3-dimethyl-4-oxo-2-oxacyclopentyl)-2,6-octadienyl]benzaldehyde] | 5/5 | 25 pmol/mg protein |  |  |  | Survival days (T. b. rhodesiense; Glycerol dose 0, average survival time after treatment in mice that died from infection): 12 days; Cured/Infected (T. b. rhodesiense; Glycerol dose 0, start 24 hours after infection, cured = no protozoan in blood and survival 60 days or more): 0/5; Survival days (T. b. rhodesiense; Glycerol dose 50 mg/kg, average survival time of mice that died from infection): 12 days; Cured/Infected (T. b. rhodesiense; Glycerol dose 50 mg/kg): 0/5; Survival days (T. b. rhodesiense; Glycerol dose 750 mg/kg, average survival time of mice that died from infection): 21 days; Cured/Infected (T. b. rhodesiense; Glycerol dose 750 mg/kg): 2/3 |
| C/C=C(C)/C=C/C=C/[C@H](OC)[C@@H](C)[C@@H](OC)[C@@H](C)CCc1oc2c(O)c(OC)cc(OC)c2c(=O)c1C [stigmatellin] |  | 18,600 pmol/mg protein |  |  |  |  |
| C/C(=C\Cc1c(O)c(Cl)c(C)c(C=O)c1O)CC/C=C(\C)COC(=O)C(C)(C)C [Compound 234-12-OPiv, (2E,6E)-8-(3-Chloro-5-formyl-2,6-dihydroxy-4-methylphenyl)-2,6-dimethyl-2,6-octadienyl pivalate] | 5/5 |  | 0.4 | 0.031 | 0.39 |  |
| CC(=O)OC(C)/C(C)=C/CC/C(C)=C/Cc1c(O)c(Cl)c(C)c(C=O)c1O (stereo not shown) [Compound 277-11-OAc, (3E,7E)-9-(3-Chloro-5-formyl-2,6-dihydroxy-4-methyl)phenyl-3,7-dimethyl-3,7-nonadie2-yl acetate] | 4/4 |  | 1.2 | 0.082 | 2.3 | IC50 [3]: 1.5 nM |
| CO/C(=C/C(N)=O)[C@H](C)[C@H](/C=C/c1csc(-c2csc([C@@H](C)/C=C/C=C/C(C)C)n2)n1)OC [myxothiazol] |  | 21,500 pmol/mg protein |  |  |  |  |
| CCCC[C@H]1C(=O)O[C@H](C)[C@H](NC(=O)c2cccc(NC=O)c2O)C(=O)O[C@@H](C)[C@@H]1OC(=O)CC(C)C [Antimycin A3] |  | 48,600 pmol/mg protein |  |  |  |  |
| C/C(=C\Cc1c(O)c(Cl)c(C)c(C=O)c1O)CC/C=C(\C)C(C)O (stereo not shown) [Compound 277-9-OH] | 4/4 |  | 0.48 | 0.048 | 74 | IC50 [3]: 2.5 nM |
